Measurements: patent US9107954B2, “Bivalent ligands for the treatment of neurological disorders” (Virginia Commonwealth University, priority 2012, dated 2015)
Where two headings read alike, the source gives them in different places.

Tests used:
CCR5 [1] = experiment: Flow cytometry of CCR5 immunofluorescence in HIV-1 infected primary human astrocytes; format: cell-based; conditions: vs uninfected
Protocol: MOR and CCR5 immunoreactivity were detected by direct immunofluorescence in astroglial cells by flow cytometric analysis. Cells were washed in phosphate-buffered saline (PBS)-0.1% bovine serum albumin (BSA) buffer and incubated with primary MOR antibody followed by a secondary antibody conjugated to allophycocyanin (APC) (Biolegend, Inc; catalog #408001) and Alexa Fluor® 488 conjugated anti-mouse CD195 (CCR5) antibody (Biolegend, Inc; catalog #107008) in permeabilization buffer (PBS-0.1% BSA-0.1% Triton X-100) at a 1:500 dilution. Fluorescence was measured from 10,000 gated cells per treatment in each experiment using a FACSCanto II flow cytometer (BD Biosciences, San Jose, Calif.). Auto-fluorescence was compensated by setting the detector voltage to the minimum level that discriminates between auto-fluorescence and specific immunofluorescence in both negative and positive controls. Isotype control antibodies were used to define settings in histogram plot analyses.
We quantitatively analyzed the effect of MVC and the bivalent compound on CCR5 and MOR expression levels in virally infected astrocytes by flow cytometry. […] Approximately 20,000 events were analyzed per treatment condition in each experiment and size discrimination was used as a crude method for viability determination.

[2] = system: fusion of CCR5-MOR CHO target cells (CD4) with HEK effector cells (HIV-1 gp140); format: cell-based; conditions: for effect on cell fusion: 1 at 3000 nM, 2 at 10000 nM, maraviroc at 100 nM
[3] = system: R5-tropic HIV-1SF162 in primary human astrocytes; experiment: HIV-1SF162 infectivity, Tat luciferase reporter assay in primary human astrocytes; format: cell-based; conditions: for effect on viral entry / Tat production, Example 4 / effect on virus invasion (Tat expression), Example 3: MVC 100 nM; for effect on viral entry / Tat production, Example 4: NTX 1.5 μM, 18 h; for effect on virus invasion (Tat expression), Example 3: NTX 1500 nM, naltrexone groups with and without morphine
Protocol: Primary human astrocytes (ScienCell catalog #1901) were cultured in 24-well plates and transfected with the plasmid pBlue3′LTR-luc (NIH AIDS Research and Reference Reagent Program) using Lipofectamine 2000 (Invitrogen) followed by infection with HIV-1. After 18-20 h cells were rinsed twice in 1×PBS then lysed in Cell Culture Lysis Reagent (Promega) and relative Tat protein expression was determined by measuring luciferase activity using the Luciferase Assay System (Promega; catalog # E1500). Light units were measured using a PHERAstar FS plate reader (BMG Labtech).
Primary human astroglial cells were infected by incubation with the neurotropic HIV-1 strain SF162. A concentration of HIV-1 p24 50 pg/10^6 cells was used, and a no virus condition served as a negative control. Viral stocks were quantified by assaying for HIV-1 p24 (Alliance p24 Antigen ELISA Kit; Advanced Bioscience, Kensington, Md.).
HIV-1SF162 infectivity of human astroglia was determined based on the relative amount of Tat protein expressed by the virus using a luciferase-based reporter assay. Reporters under the control of the long terminal repeat (LTR) viral promoter are a robust means of measuring HIV-1 infection, since the LTR is activated by HIV-1 Tat, which is only expressed by infected cells.
As the bivalent ligand 1 has been designed as a molecular probe to study the underlying mechanisms of opioid-enhanced NeuroAIDS by targeting the MOR-CCR5 heterodimerization, a luciferase-based HIV-1SF162) infection assay measuring the relative transactivator of transcription (Tat) protein expression in human astrocytes was performed (FIG. 15). Tat is encoded by HIV-1 and is the first protein to be produced after HIV-1 infection. Thus, Tat expression level is directly proportioned to the extent of HIV-1 invasion. Astrocytes were chosen based on the following facts: first, astrocytes express both the MOR and the CCR5. Second, the human blood-brain barrier (BBB) is composed of interacting adjacent cerebral endothelial cells (CECs) and astrocytes, which makes astrocytes a readily accessible target during the course of HIV infection. Thirdly, during NeuroAIDS development astroglia are important cellular sites within the CNS where opioids synergistically potentiate the pathophysiological effects of HIV-1 infection.

mu opioid receptor (MOR) = mu opioid receptor (MOR) (Homo sapiens (Human), UniProt P35372); experiment: MOR competitive radioligand binding, [3H]naloxone, hMOR-expressed CHO cells
Protocol: MOR/CHO cell culture and membrane homogenate preparation followed literature report^52.
Saturation binding was performed by incubating membranes for 90 minutes at 30° C. with 0.5-15 nM [^3H]naloxone in assay buffer in a 0.5 mL volume. […] The reaction was terminated by rapid filtration through Whatman GF/B glass fiber filters, followed by 3 washes with 3 mL ice-cold Tris buffer. Bound radioactivity will be determined by liquid scintillation spectrophotometry at 45% efficiency for [^3H].
For competition binding assay (agonists or antagonists), Hill plots linear regression analysis and the Cheng-Prusoff equation were applied to determine the IC50 and Ki values. In [^35S]GTPγS binding assays, agonist concentration effect curves were fit by non-linear regression to obtain Emax and EC50 values; antagonist inhibition of agonist-stimulated [^35S]GTPγS binding was analyzed by Hill analysis and AD50 values were corrected to Ki values using the Cheng-Prusoff equation. All analyses were using Prism 4.0.
Herein is reported the characterization of this novel molecular probe in for its binding affinity, Ca^2+ flux functional activity, and HIV-1 inhibition potency.

CCR5 [4] = biological target: CCR5 (Homo sapiens (Human), UniProt P51681); experiment: Calcium mobilization assay, CCR5-MOR CHO co-expressed cell line (Gqi5), RANTES-stimulated; format: cell-based
Protocol: (§1) Having a cell line that consistently expresses both CCR5 and MOR was essential for studying how the two receptors interact with each other using calcium mobilization assays and cell fusion assays. A previously established MOR Chinese hamster ovarian (CHO) cell line was transfected with a plasmid containing CCR5 tagged with a yellow fluorescent protein on its N-terminus (CCR5-YFP). ^1 After 48 hours cells were sorted based upon the presence of the yellow fluorescent protein tag using a flow cytometer. Cells containing the tagged receptors were then cultured and used in the subsequent assays.
(§2) Calcium mobilization is directly related to G protein-coupled receptor (GPCR) activation and therefore is a useful technique to study the functional activity of new ligands.

MOR [5] = biological target: T1, MOR (Homo sapiens (Human), UniProt P35372); experiment: DAMGO-stimulated Ca2+ flux assay in hMOR-CHO cells transfected with Gqi5; format: cell-based
MOR [6] = biological target: T1, MOR; experiment: Calcium mobilization assay, CCR5-MOR CHO co-expressed cell line (Gqi5), DAMGO-stimulated; format: cell-based; conditions: cells stimulated with DAMGO; read-out: MOR IC50
Protocol: as §1, §2

human astrocytes = experiment: Cytotoxicity assay, AOPI live/dead labeling of human astrocytes; format: cell-based
Protocol: Cell viability was assessed by measurement of both live and dead cells using dual (green/red) fluorescence labeling with AOPI analyzed with Cellometer Vision CBA (Nexcelom Bioscience LLC).
To determine whether HIV-1±morphine exposure affected astrocyte viability in the presence or absence of MVC or the bivalent compound, a cell death assay was performed at 24 h after treatment.

CCR5 (Homo sapiens (Human), UniProt P51681), sequence (P51681 whole entry, the tested form may be a part): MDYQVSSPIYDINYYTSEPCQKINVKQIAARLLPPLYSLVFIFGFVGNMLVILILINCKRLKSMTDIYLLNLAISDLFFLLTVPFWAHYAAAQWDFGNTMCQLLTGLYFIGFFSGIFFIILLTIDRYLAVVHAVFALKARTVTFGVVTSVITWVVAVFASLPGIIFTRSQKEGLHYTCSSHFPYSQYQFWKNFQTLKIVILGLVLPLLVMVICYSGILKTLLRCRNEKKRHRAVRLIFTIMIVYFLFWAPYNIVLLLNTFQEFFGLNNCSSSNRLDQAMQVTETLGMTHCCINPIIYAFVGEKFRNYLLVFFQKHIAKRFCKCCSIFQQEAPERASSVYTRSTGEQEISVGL

Cc1nnc(C(C)C)n1C1CC2CCC(C1)N2CCC(NC(=O)C1CCC(F)(F)CC1)c1ccc(N)cc1 (stereo not shown)
melting point: 109 to 110 °C

CN1CC[C@]23c4c5ccc(O)c4O[C@H]2[C@@H](O)C=C[C@H]3[C@H]1C5 [morphine, reference compound]
fold increase in CCR5 expression levels, HIV-1R5 in combination with morphine (CCR5 [1]): 3.3 fold
effect of morphine on cell fusion ([2]; morphine 300 nM, +CD4, vs +CD4 alone): significant increase
fold increase in Tat expression after infection with R5 in combination with morphine ([3]; morphine 500 nM, vs uninfected): ~2.7 fold

Cc1nnc(C(C)C)n1C1CC2CCC(C1)N2CC[C@H](NC(=O)C1CCC(F)(F)CC1)c1cccc(NC(=O)COCC(=O)NCCCCCCCNC(=O)COCC(=O)N[C@@H]2CC[C@@]3(O)[C@H]4Cc5ccc(O)c6c5[C@@]3(CCN4CC3CC3)[C@H]2O6)c1 (stereo partly shown) [compound 2]
Ki (mu opioid receptor (MOR); Example 1, read-out: binding affinity to the mu opioid receptor, Ki): 0.00918 ± 0.00344 µM
Ki (mu opioid receptor (MOR); mean of three experiments, read-out: Radioligand binding Ki ± SEM): 0.0092 ± 0.0034 µM
fold loss in CCR5 antagonist activity compared to maraviroc (CCR5 [4]): 800 fold
IC50 (CCR5 [4]; cells stimulated with RANTES): 14 ± 0.345 µM
IC50 (MOR [5]; DAMGO stimulated, hMOR-CHO Gqi5, read-out: Ca2+ inhibition IC50 ± SEM): 0.0378 ± 0.0044 µM
agonism in Ca2+ mobilization assay (MOR [5]; hMOR-CHO Gqi5, data not shown): No agonism
effect on cell fusion [2]: significantly lowered cell fusion
amplification of cell fusion inhibition when morphine present ([2]; morphine 300 nM): 2 fold
IC50 (MOR [6]): 0.0174 ± 0.00574 µM

O=C1CC[C@@]2(O)[C@H]3Cc4ccc(O)c5c4[C@@]2(CCN3CC2CC2)[C@H]1O5 [Naltrexone, reference compound]
effect on viral entry / Tat production, Example 4 [3]: did not show significant effect
effect on virus invasion (Tat expression), Example 3 [3]: no effect on virus invasion

Cc1nnc(C(C)C)n1C1C[C@H]2CC[C@@H](C1)N2CC[C@H](NC(=O)C1CCC(F)(F)CC1)c1ccccc1 (stereo in doubt) [Maraviroc, reference compound]
effect on cell fusion [2]: significantly lowered cell fusion
amplification of cell fusion inhibition when morphine present ([2]; morphine 300 nM): not amplified
astrocyte viability (human astrocytes; 100 nM, HIV-1 ± morphine, 24 h): not significantly different
toxicity in the astrocytes, cytotoxicity assays (not shown) (human astrocytes; Example 3): neither maraviroc nor 1 had any toxicity
toxicity to the cells at higher concentration (human astrocytes; concentration higher than 100 nM): increased toxicity to the cells
effect on viral entry / Tat production, Example 4 [3]: considerably inhibited viral entry
effect on virus invasion (Tat expression), Example 3 [3]: virus invasion is decreased
